Results taken from publication PMC6013247, “Preclinical characterization of INCB053914, a novel pan-PIM kinase inhibitor, alone and in combination with anticancer agents, in models of hematologic malignancies” (PLoS ONE, 2018).

Key:
Experiment in all cases: Cell proliferation assay ([3H]-thymidine)
Assay type in all cases: cell-based
CCRF-CEM = details: Homo sapiens; CCRF-CEM (T-ALL); read-out: Mean (± SD) GI50
Description: (§1) The antiproliferative effects of INCB053914 on hematologic tumor cells were investigated using assays described in the Supporting Information (S2 File).
(§2) Cell proliferation assays. […] After 3 to 4 days, [^3H]-thymidine (1 μCi/well) (PerkinElmer) in PBS (10 μl) was added to the cell culture for an additional 12 hours. The incorporated radioactivity was separated by filtration with water through GF/B filters (Packard Bioscience, Meriden, Connecticut) and measured by liquid scintillation counting with a TopCount (Packard Bioscience).

EOL = EOL (AML)
Description: as §1, §2

F36P = F36P (AML)
Description: as §1, §2

GDM-1 = details: Homo sapiens; GDM-1 (AML); read-out: Mean (± SD) GI50
Description: as §1, §2

HBL-1 = details: HBL1; HBL-1 (DLBCL); read-out: Mean (± SD) GI50
Description: as §1, §2

HL-60 = details: Homo sapiens; HL-60 (AML); read-out: Mean (± SD) GI50
Description: as §1, §2

INA-6 = INA-6 (MM)
Description: as §1, §2

JVM2 = JVM2 (MCL)
Description: as §1, §2

Jeko-1 = Jeko-1 (MCL)
Description: as §1, §2

KG-1a = KG-1a (AML)
Description: as §1, §2

KMS-11 = KMS-11 (MM)
Description: as §1, §2

KMS-12-PE = KMS-12-PE (MM)
Description: as §1, §2

Kasumi-1 = Kasumi-1 (AML)
Description: as §1, §2

Kasumi-3 = Kasumi-3 (AML)
Description: as §1, §2

L363 = L363 (MM)
Description: as §1, §2

MM1.S = MM1.S (MM)
Description: as §1, §2

MOLP-2 = MOLP-2 (MM)
Description: as §1, §2

MV-411 = MV-411 (AML)
Description: as §1, §2

OCI-LY-10 = OCI-LY-10 (DLBCL)
Description: as §1, §2

OCI-LY-19 = OCI-LY-19 (DLBCL)
Description: as §1, §2

OCI-LY-3 = details: Homo sapiens, OCI-Ly3; OCI-LY-3 (DLBCL); read-out: Mean (± SD) GI50
Description: as §1, §2

PL-21 = PL-21 (AML); read-out: Mean (± SD) GI50
Description: as §1, §2

Pfeiffer = Pfeiffer (DLBCL)
Description: as §1, §2

RPMI-6666 = details: Homo sapiens; RPMI-6666 (HL); read-out: Mean (± SD) GI50
Description: as §1, §2

Reh = Reh (T-ALL)
Description: as §1, §2

SKM-1 = details: Homo sapiens; SKM-1 (AML); read-out: Mean (± SD) GI50
Description: as §1, §2

SUDHL-1 = details: Homo sapiens, SU-DHL-1; SUDHL-1 (DLBCL); read-out: Mean (± SD) GI50
Description: as §1, §2

Toledo = Toledo (DLBCL)
Description: as §1, §2

U2932 = U2932 (DLBCL)
Description: as §1, §2

WSU-NHL = WSU-NHL (DLBCL)
Description: as §1, §2

[1] = Homo sapiens, read-out: Mean (± SD) GI50

C[C@H]1CN(c2c(NC(=O)c3ccc(F)c(-c4c(F)cccc4F)n3)cnc3c2CC[C@H]3O)C[C@@H](N)[C@@H]1O.O=P(O)(O)O [INCB053914, N-((R)-4-((3R,4R,5S)-3-amino-4-hydroxy-5-methylpiperidin-1-yl)-7-hydroxy-6,7-dihydro-5H-cyclopenta[b]pyridin-3-yl)-6-(2,6-difluorophenyl)-5-fluoropicolinamide phosphate]
GI50 (CCRF-CEM): > 3000 nM
Mean (SD) maximum inhibition (EOL): 99.5 ± 0.6%
GI50 (EOL; read-out: Mean (± SD) GI50): 18.5 ± 6.1 nM
Mean (SD) maximum inhibition (F36P): 94.7 ± 2.5%
GI50 (F36P; read-out: Mean (± SD) GI50): 76.1 ± 36.7 nM
GI50 (GDM-1): > 3000 nM
GI50 (HBL-1): > 3000 nM
GI50 (HL-60): > 3000 nM
Mean (SD) maximum inhibition (INA-6): 99.0 ± 0.2%
GI50 (INA-6; read-out: Mean (± SD) GI50): 24.8 ± 4.6 nM
GI50 (JVM2; Homo sapiens, JVM-2, read-out: Mean (± SD) GI50): 290 ± 291 nM
Mean (SD) maximum inhibition (JVM2): 63.0 ± 8.7%
GI50 (Jeko-1; [1]): 117 ± 45.5 nM
Mean (SD) maximum inhibition (Jeko-1): 91.3 ± 2.9%
GI50 (KG-1a; [1]): 14.3 ± 4.9 nM
Mean (SD) maximum inhibition (KG-1a): 94.5 ± 1.5%
GI50 (KMS-11; [1]): 81.8 ± 8.1 nM
Mean (SD) maximum inhibition (KMS-11): 93.0 ± 2.5%
GI50 (KMS-12-PE; [1]): 89.7 ± 50.9 nM
Mean (SD) maximum inhibition (KMS-12-PE): 97.0 ± 4.7%
GI50 (Kasumi-1; [1]): 206 ± 76.3 nM
Mean (SD) maximum inhibition (Kasumi-1): 76.7 ± 4.6%
Mean (SD) maximum inhibition (Kasumi-3): 84.3 ± 7.2%
GI50 (Kasumi-3; read-out: Mean (± SD) GI50): 4.9 nM
GI50 (L363; Homo sapiens, L-363, read-out: Mean (± SD) GI50): 115 ± 89.4 nM
Mean (SD) maximum inhibition (L363): 90.3 ± 8.1%
GI50 (MM1.S; [1]): 55.4 ± 38.1 nM
Mean (SD) maximum inhibition (MM1.S): 88.3 ± 3.1%
Mean (SD) maximum inhibition (MOLP-2): 95.4 ± 3.2%
GI50 (MOLP-2; read-out: Mean (± SD) GI50): 23.8 ± 10.1 nM
GI50 (MV-411; Homo sapiens, MV4-11, read-out: Mean (± SD) GI50): 35.2 ± 41.7 nM
Mean (SD) maximum inhibition (MV-411): 94.3 ± 3.9%
GI50 (OCI-LY-10; Homo sapiens, OCI-Ly10, read-out: Mean (± SD) GI50): 41.7 ± 29.4 nM
Mean (SD) maximum inhibition (OCI-LY-10): 96.3 ± 5.5%
GI50 (OCI-LY-19; Homo sapiens, OCI-LY19, read-out: Mean (± SD) GI50): 110 ± 53.6 nM
Mean (SD) maximum inhibition (OCI-LY-19): 69.7 ± 5.1%
GI50 (OCI-LY-3): > 3000 nM
GI50 (PL-21): > 3000 nM
GI50 (Pfeiffer; [1]): 19.5 nM
Mean (SD) maximum inhibition (Pfeiffer): 90.5 ± 6.7%
GI50 (RPMI-6666): > 3000 nM
GI50 (Reh; [1]): 33.7 ± 24.3 nM
Mean (SD) maximum inhibition (Reh): 94.3 ± 5.7%
GI50 (SKM-1): > 3000 nM
GI50 (SUDHL-1): > 3000 nM
GI50 (Toledo; [1]): 70.7 ± 25.1 nM
Mean (SD) maximum inhibition (Toledo): 97.6 ± 1.5%
GI50 (U2932; [1]): 34.5 ± 10.1 nM
Mean (SD) maximum inhibition (U2932): 83.6 ± 8.0%
GI50 (WSU-NHL; [1]): 1270 nM
Mean (SD) maximum inhibition (WSU-NHL): 76.8 ± 10.5%
